Test in all cases: inhibition of tumour cell growth, NCI panel, 48 h
Experiment [1] relates to SNB-19 CNS.
Experiment [2] has as its system MDA-MB-435.
Experiment [3] relates to SF-268 CNS.
For experiment [4], the system named is MDA-N.
Experiment [5] concerns NCI-H23 lung.
Experiment [6] relates to CCRF-CEM leukemia.
Experiment [7] has as its system PC-3 prostate.
Experiment [8] concerns COLO 205 colon.
For experiment [9], the system named is NCI-H522 lung.
The subject of experiment [10] is OVCAR-4 ovarian.

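In this assay, cells in 96-well plates receive the compound at five concentrations for 48 hours. Endpoints are linearly interpolated between the surrounding concentrations. The concentration for full growth arrest is given as TGI.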

In the case of `CCOC(=O)/C=C(/OCC)[C@@H]1C(C(=O)c2ccc(Cl)cc2)[C@@H]1/C(=C\C(=O)OCC)OCC` (stereo partly specified), the TGI in [1] was above 100 µM; in experiment [2], above 83.8 µM; in experiment [3] it was above 100 µM; in [4], above 100 µM; in experiment [5] it was 81.8 µM; in [6], above 100 µM. Besides, the TGI is above 100 µM in experiment [7], 27.4 µM in [8], above 59.2 µM in experiment [9] and above 100 µM in [10].

For `CCOC1OC(C)(C=C(C#N)C#N)CCC1C` (stereo unspecified), the TGI in experiment [1] is above 100 µM; in experiment [2] it was above 100 µM; in [3], above 100 µM; in experiment [4], above 100 µM; in [5], above 100 µM; in [6] it was above 86 µM. Moreover, the TGI in experiment [7] was above 100 µM; in experiment [8] it was above 100 µM; in experiment [9] it was 39.5 µM; in experiment [10], above 100 µM.

Regarding `Cc1cc(C)nc(NS(=O)(=O)c2ccc(NC(=O)c3ccc4nc5ccccc5c(Nc5ccc(S(=O)(=O)N=C(N)N)cc5)c4c3)cc2)n1`, the TGI in [1], in experiment [2], in experiment [3], in experiment [4], in [5] and in experiment [6] was above 100 µM each time. The TGI in experiment [7], in [8], in [9] and in experiment [10] was above 100 µM throughout.

For `CN(CC(=O)O)c1ncc2c(n1)-c1ccccc1CC2`, the TGI in experiment [1], in [2], in experiment [3], in experiment [4], in experiment [5] and in experiment [6] was above 100 µM in each case. Also, the TGI in [7], in experiment [8], in [9] and in experiment [10] was above 100 µM in each case.

With `Nc1c(-c2ccccc2)c2ccc([N+](=O)[O-])cc2c(=O)n1-c1cccc(C(=O)O)c1`, the TGI in [1], in experiment [2], in experiment [3], in experiment [4], in experiment [5] and in experiment [6] was above 100 µM in each case. Further, the TGI in experiment [7], in experiment [9] and in [10] was above 100 µM throughout.

On to `COc1ccc(C=C2C(C)=NN(c3cccc(Cl)c3)C23C(Cl)C(=O)N3c2nc3ccccc3s2)cc1` (stereo unspecified), for which the TGI came to 66.8 µM in experiment [2]; 78.3 µM in experiment [3]; 44.6 µM in experiment [4]; 36 µM in experiment [5]; 30.5 µM in experiment [6]; 39.3 µM in [7]. Further, the TGI in experiment [9] was determined as 22 µM; in [10], 93.5 µM.

Take `Cc1c(C)c2c(c(N)c1C#N)C(=O)N(NC(=S)Nc1ccccc1)C2=O`: the TGI in experiment [1], in experiment [2], in experiment [3], in experiment [4], in experiment [5] and in experiment [6] was above 100 µM in each case. Moreover, the TGI in [7], in experiment [8], in experiment [9] and in [10] was above 100 µM throughout.

With `CC(C)(C)OC(=O)N1CCC2(CC1)C(=O)NCN2c1ccccc1`, the TGI in [1], in experiment [2], in [3], in experiment [4], in experiment [5] and in experiment [6] was above 100 µM throughout. The TGI in experiment [7], in experiment [8], in experiment [9] and in [10] was above 100 µM in each case.

On to `O=[N+]([O-])C(/C=C(\Cl)[N+](=O)[O-])=C(Nc1ccccc1)Nc1ccccc1`, for which the TGI in [1] amounted to 32.8 µM; in experiment [2] it was 17.4 µM; in experiment [3], 37.7 µM; in [4], 18.7 µM; in experiment [5], 23.2 µM; in experiment [6], 5.36 µM. Further, the TGI was found to be 28.8 µM in experiment [7], 23.1 µM in experiment [8], 4.55 µM in experiment [9] and 20.6 µM in [10].

As to `C=C(C)C1CCC2(C)C1CCC1(C)C2CCC2C3(C)C4OC(OC4=O)C(C)(C)C3CCC21C` (stereo unspecified), the TGI in experiment [1], in experiment [2], in [3], in experiment [4], in [5] and in [6] was above 100 µM throughout. Also, the TGI in [7] was above 100 µM; in experiment [8], above 100 µM; in [9], 53.6 µM.

Consider `CCCCCCCCCCCCCCCCOC[C@H](COC(c1ccccc1)(c1ccccc1)c1ccccc1)O[P+](=S)OC` (stereo partly specified), for which the TGI in experiment [1], in experiment [2], in experiment [3], in [4], in [5] and in experiment [6] was above 100 µM in each case. The TGI in experiment [7], in experiment [8] and in [9] was above 100 µM each time.

In the case of `CC(C)(C)C(=O)C(N)C(=O)C(C)(C)C`, the TGI in [1], in [2], in experiment [3], in [4], in [6] and in experiment [7] was above 100 µM in each case. Besides, the TGI in [8], in [9] and in experiment [10] was above 100 µM throughout.

`CCOC(=O)NC(Nc1ccc(C(=O)O)cc1)(C(F)(F)F)C(F)(F)F`: the TGI in [1], in experiment [2], in experiment [3], in [4], in experiment [5] and in [6] was above 100 µM throughout. The TGI in [7], in [8] and in experiment [9] was above 100 µM each time.

With `O=C(CN1CCCC1)Nc1ccc2c(c1)C1Oc3ccccc3CC1CO2` (stereo unspecified), the TGI is 55.4 µM in experiment [2]; above 100 µM in [3]; 88.2 µM in experiment [4]; above 100 µM in [5]; above 100 µM in experiment [6]; 68.3 µM in [7]. The TGI in [8] worked out at 27.8 µM; in [9], 96.5 µM.

For the origin of these results see PubChem BioAssay (NCI).
